The source of these data is PubChem BioAssay (NCI).

Experiment in all cases: NCI-60 cell line screen, 48 h
The test system of test [1] is HCT-15 colon.
Test [2] deals with HL-60(TB) leukemia.
Test [3] has as its system RXF 393 renal.
In test [4] the test system is HOP-62 NSCLC.
Test [5] relates to UACC-257 melanoma.
Test [6] deals with MCF7 breast.
In test [7] the test system is MDA-MB-435.
In test [8] the test system is SF-295 CNS.
The test system of test [9] is HT29 colon.
Test [10] has as its system IGROV1 ovarian.

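Compound exposure: 48 hours, 5 concentrations, 96-well plates. Abbreviation: GI50, concentration required for 50% inhibition of growth. TGI denotes the concentration required for complete inhibition of growth.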 Some results are limits rather than exact numbers.

Turning to `C[C@]12CC[C@@H]3c4ccc(O)cc4CC[C@H]3[C@@H]1Cc1cnc(N)nc12`, the GI50 is 16.5 µM in test [1]; 22.1 µM in [2]; 11.5 µM in test [3]; 25.5 µM in test [4]; 28.9 µM in [5]; 18.8 µM in test [6]. Also, the GI50 in test [7] was 16.2 µM; in [8], 15.2 µM; in test [9] it was 52.9 µM; in test [10], 35.1 µM. Moreover, the TGI in test [1] is 39.1 µM; in test [2], over 100 µM; in test [3] it was 31.3 µM; in test [4] it was 59.1 µM; in test [5] it was 74.1 µM; in [6], 47.7 µM. The TGI was 43.5 µM in [7], 42.7 µM in test [8], over 100 µM in test [9] and over 100 µM in [10].

For `C#CCNCCN1C(=O)c2ccc3c4c(ccc(c24)C1=O)C(=O)N(CCNCC#C)C3=O`, the GI50 in [1] was 2.95 µM; in [2], 8.35 µM; in test [3], 1.79 µM; in test [4], 4.1 µM; in test [5] it was 3.08 µM; in test [6], 2.67 µM. In addition, the GI50 in test [7] is 1.52 µM; in [8], 2.15 µM; in test [9], 1.65 µM; in test [10], 2.07 µM. Besides, the TGI worked out at 10.6 µM in [1]; 25.8 µM in [2]; 9.69 µM in [3]; 14.9 µM in [4]; 9.65 µM in test [5]; 13.4 µM in test [6]. For the same compound, the TGI in test [7] was determined as 5.85 µM; in test [8] it was 15 µM; in test [9], 6.2 µM; in [10], 10.4 µM.

As for `O=C1c2ccc3c4c(ccc(c24)C(=O)N1CCCNCc1ccccc1Cl)C(=O)N(CCCNCc1ccccc1Cl)C3=O`, the GI50 is 0.148 µM in test [1]; 0.904 µM in [2]; 0.121 µM in [3]; 0.277 µM in test [4]; 0.125 µM in test [5]; 0.1 µM in test [6]. Also, the GI50 in test [7] was 0.12 µM; in test [8], 0.494 µM; in test [9] it was 0.123 µM; in [10], 0.275 µM. The TGI was determined as 0.62 µM in test [1]; 2.11 µM in test [2]; 0.366 µM in test [3]; 1.02 µM in test [4]; 0.334 µM in [5]; 0.231 µM in test [6]. Besides, the TGI in test [7] worked out at 0.332 µM; in test [8], 1.22 µM; in test [9], 0.335 µM; in [10] it was 1.63 µM.

Consider `N#CSCc1ccc(Cl)c(CSC#N)c1`, for which the GI50 in test [1] is 0.143 µM; in test [2] it was 0.0468 µM; in test [3], 0.559 µM; in [4] it was 7.25 µM; in [5], 15 µM; in test [6] it was 0.0465 µM. Besides, the GI50 in test [7] was 0.133 µM; in test [8] it was 3.15 µM; in [9], 0.0423 µM; in test [10], 5.9 µM. Also, the TGI in [1] is 25.1 µM; in test [2] it was 2.48 µM; in test [3] it was 12.3 µM; in test [4] it was over 66.9 µM; in [5], 50.2 µM; in test [6], 25.6 µM. Besides, the TGI was 3.81 µM in test [7], over 49.3 µM in test [8], over 37.6 µM in test [9] and 49.8 µM in [10].

For `CC1=C(CCC(C)NCc2ccc(OCCCN3CCCCC3)cc2)C(C)(C)CCC1` (stereo not given), the GI50 is 0.575 µM in test [1]; 2.14 µM in [2]; 1.6 µM in test [3]; 1.84 µM in [4]; 2.2 µM in test [5]; 0.286 µM in [6]. In addition, the GI50 in [7] was 0.216 µM; in test [8] it was 1.66 µM; in test [9] it was 0.384 µM; in test [10], 1.68 µM. Further, the TGI is 2.03 µM in test [1]; 4.2 µM in test [2]; 3.06 µM in [3]; 3.64 µM in test [4]; 4.03 µM in [5]; 1.17 µM in [6]. For the same compound, the TGI in test [7] was 0.528 µM; in test [8], 3.23 µM; in test [9], 1.38 µM; in test [10], 3.89 µM.
